{
  "source": "patent US5086176A",
  "about": "“Tricyclic fused adenine derivatives” (priority 1991, dated 1992)",
  "key": {"A-2 receptors": {"system": "A-2 receptors", "settings": "rank order; cited from earlier work"}, "Adenosine A-1 receptor [1]": {"biological_target": "T1, Adenosine A-1 receptor (Rattus norvegicus, UniProt P25099)", "T1 sequence (P25099 1-326)": "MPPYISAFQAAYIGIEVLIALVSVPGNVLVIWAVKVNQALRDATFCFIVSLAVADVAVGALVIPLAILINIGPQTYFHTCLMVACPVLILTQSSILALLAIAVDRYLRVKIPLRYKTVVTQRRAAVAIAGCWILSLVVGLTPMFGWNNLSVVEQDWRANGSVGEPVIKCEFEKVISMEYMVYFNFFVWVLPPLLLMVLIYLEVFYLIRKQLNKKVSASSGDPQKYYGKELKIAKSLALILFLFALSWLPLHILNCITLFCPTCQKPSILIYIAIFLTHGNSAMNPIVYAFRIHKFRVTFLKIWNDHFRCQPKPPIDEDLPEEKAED", "assay": "Test for affinity for brain adenosine A-1 receptor binding sites ([3H]cyclohexyladenosine displacement)", "settings": "ratio of A-2 Ki to A-1 Ki"}, "A-1 receptors": {"system": "A-1 receptors", "settings": "cited from earlier work"}, "Adenosine A-1 receptor [2]": {"biological_target": "T1, Adenosine A-1 receptor"}, "[3]": {"system": "effects of adenosine analogs on heart rate and blood pressure", "settings": "heart rate compared with blood pressure; cited from earlier work"}},
  "note": "Where two headings read alike, the source gives them in different places.",
  "data": [
    {"smiles": "Nc1nc(Cl)nc2c1ncn2[C@@H]1O[C@H](CO)[C@@H](O)[C@H]1O", "note": "[2-chloroadenosine]", "values": [
      {"measurement": "order of potency at A-2 receptors", "setting": "A-2 receptors", "value": "NECA>2-chloroadenosine>R-PIA>CHA"}
    ]},
    {"smiles": "CCCOC1=Nc2c(cnn2-c2ccccc2)C2=N[C@H](C)[C@@H](c3ccccc3)N12", "note": "[Compound 7, (2R-trans)-2,7-dihydro-2-methyl-3,7-diphenyl-5-propoxy-3H-Imidazo-[1,2-c]pyrazolo[4,3-s]pyrimidine]", "values": [
      {"measurement": "A-2 Ki/A-1 Ki", "setting": "Adenosine A-1 receptor [1]", "value": 1.17}
    ]},
    {"smiles": "CCCn1c(=O)c2[nH]c(-c3ccc(OCC(=O)O)cc3)nc2n(CCC)c1=O", "note": "[XCC]", "values": [
      {"measurement": "adenosine receptor selectivity", "setting": "A-1 receptors; A-1 versus A-2, in vitro", "value": "non-selective"}
    ]},
    {"smiles": "C1=Nc2c(ncn2-c2ccccc2)C2=N[C@H](Cc3ccccc3)CN12", "note": "[Compound 6, (R)-7,8-dihydro-3-phenyl-8-(phenylmethyl)-3H-diimidazo[1,2-c: 4',5'-e]pyrimidine]", "values": [
      {"measurement": "A-2 Ki/A-1 Ki", "setting": "Adenosine A-1 receptor [2]", "value": 16.40}
    ]},
    {"smiles": "C1=Nc2c(cnn2-c2ccccc2)C2=N[C@H](Cc3ccccc3)CN12", "note": "[Compound 3, (R)-2,7-dihydro-7-phenyl-2-(phenylmethyl)-3H-imidazo-[1,2-c]pyrazolo-[4,3-e]pyrimidine]", "values": [
      {"measurement": "A-2 Ki/A-1 Ki", "setting": "Adenosine A-1 receptor [1]", "value": 13.20}
    ]},
    {"smiles": "CCCn1c(=O)c2[nH]c(-c3ccc(OCC(=O)NCCN)cc3)nc2n(CCC)c1=O", "note": "[XAC]", "values": [
      {"measurement": "higher affinity for A-1 adenosine receptors", "setting": "A-1 receptors; A-1 Ki compared with Ki at A-2 receptors of the brain slice assay", "value": 40, "unit": "fold"},
      {"measurement": "antagonizing the effects of adenosine analogs on heart rate versus blood pressure", "setting": "[3]", "value": "much more potent in antagonizing the effects of adenosine analogs on heart rate than on blood pressure"}
    ]},
    {"smiles": "CCNC(=O)[C@H]1O[C@@H](n2cnc3c(N)ncnc32)[C@H](O)[C@@H]1O", "note": "[NECA, N-5'-ethylcarboxamidoadenosine]", "values": [
      {"measurement": "order of potency at A-2 receptors", "setting": "A-2 receptors", "value": "NECA>2-chloroadenosine>R-PIA>CHA"}
    ]}
  ]
}
